Data: the supplement of paper PMC10307832

Columns and labels:
Assay in all cases: relative viability (nuclei count vs DMSO), 5 days (fraction); higher = more cells survive
[1] = compound: C[C@@H](N)c1ccc(C(=O)Nc2ccnc3[nH]ccc23)cc1 + Nc1nc2[nH]cc(CCc3ccc(C(=O)N[C@@H](CCC(=O)O)C(=O)O)cc3)c2c(=O)[nH]1 [Pemetrexed] (partner 0.2 µM)
Method in brief: (§1)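 A single step with final 0.05% Triton X-100, 1% formaldehyde and 1 ug/ml Hoechst fixed the cells and stained nuclei 5 days after treatment. Lung cancer cell lines in 1536-well plates had been treated by pin tool the day after seeding with one drug alone or a fixed anchor-drug dose plus five library-drug doses (not always all listed) in √10 steps, and nuclei were counted on 4× images. Relative viability is the ratio of nuclei in treated wells to nuclei in vehicle wells, taken as the median of duplicate plates.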

Tanzisertib + Bortezomib = compound: O[C@H]1CC[C@H](Nc2ncc3nc(Nc4c(F)cc(F)cc4F)n([C@H]4CCOC4)c3n2)CC1 [Tanzisertib] + CC(C)C[C@H](NC(=O)[C@H](Cc1ccccc1)NC(=O)c1cnccn1)B(O)O [Bortezomib] (partner 0.002 µM)
Method in brief: as §1

Tanzisertib + Lapatinib = compound: O[C@H]1CC[C@H](Nc2ncc3nc(Nc4c(F)cc(F)cc4F)n([C@H]4CCOC4)c3n2)CC1 [Tanzisertib] + CS(=O)(=O)CCNCc1ccc(-c2ccc3ncnc(Nc4ccc(OCc5cccc(F)c5)c(Cl)c4)c3c2)o1 [Lapatinib] (partner 2 µM)
Method in brief: as §1

Tanzisertib + Tozasertib = compound: O[C@H]1CC[C@H](Nc2ncc3nc(Nc4c(F)cc(F)cc4F)n([C@H]4CCOC4)c3n2)CC1 [Tanzisertib] + Cc1cc(Nc2cc(N3CCN(C)CC3)nc(Sc3ccc(NC(=O)C4CC4)cc3)n2)n[nH]1 [Tozasertib] (partner 0.1 µM)
Method in brief: as §1

| Cell Line | relative viability ([1]; first compound 0.04 µM) | relative viability ([1]; first compound 0.1265 µM) | relative viability ([1]; first compound 0.4 µM) | relative viability ([1]; first compound 1.265 µM) | relative viability ([1]; first compound 4 µM) | relative viability (Tanzisertib + Bortezomib; first compound 0.08 µM) | relative viability (Tanzisertib + Bortezomib; first compound 0.253 µM) | relative viability (Tanzisertib + Bortezomib; first compound 0.8 µM) | relative viability (Tanzisertib + Bortezomib; first compound 2.53 µM) | relative viability (Tanzisertib + Bortezomib; first compound 8 µM) | relative viability (Tanzisertib + Lapatinib; first compound 0.08 µM) | relative viability (Tanzisertib + Lapatinib; first compound 0.253 µM) | relative viability (Tanzisertib + Lapatinib; first compound 0.8 µM) | relative viability (Tanzisertib + Lapatinib; first compound 2.53 µM) | relative viability (Tanzisertib + Lapatinib; first compound 8 µM) | relative viability (Tanzisertib + Tozasertib; first compound 0.08 µM) | relative viability (Tanzisertib + Tozasertib; first compound 0.253 µM) | relative viability (Tanzisertib + Tozasertib; first compound 0.8 µM) | relative viability (Tanzisertib + Tozasertib; first compound 2.53 µM) | relative viability (Tanzisertib + Tozasertib; first compound 8 µM) |
| --- | --- | --- | --- | --- | --- | --- | --- | --- | --- | --- | --- | --- | --- | --- | --- | --- | --- | --- | --- | --- |
| EMC-BAC-2 | 0.401 | 0.422 | 0.452 | 0.471 | 0.402 | 1.19 | 1.14 | 1.13 | 1.05 | 1.06 | 1.03 | 0.923 | 0.931 | 0.867 | 0.841 | 0.268 | 0.275 | 0.262 | 0.277 | 0.277 |
| NCI-H520 | 0.624 | 0.668 | 0.69 | 0.802 | 0.652 | 0.945 | 0.739 | 0.606 | 0.51 | 0.446 | 0.834 | 0.804 | 0.827 | 0.789 | 0.819 | 0.411 | 0.464 | 0.403 | 0.428 | 0.414 |
| NCI-H1755 | 0.433 | 0.527 | 0.448 | 0.425 | 0.471 | 1.03 | 0.995 | 0.986 | 0.957 | 0.942 | 1.06 | 0.98 | 0.995 | 1.07 | 0.968 | 0.58 | 0.618 | 0.561 | 0.582 | 0.533 |
| NCI-H1993 | 0.652 | 0.653 | – | 0.632 | 0.642 | 1.14 | 1.07 | 1.12 | 1.04 | 0.857 | 0.815 | 0.846 | 0.914 | 0.777 | 0.748 | 0.614 | 0.593 | 0.592 | 0.617 | 0.548 |
| NCI-H23 | 0.619 | 0.744 | 0.848 | – | 0.754 | 1.18 | 0.979 | 0.875 | 1.11 | 1.17 | 1.4 | 0.998 | 0.964 | 1.05 | 0.936 | 0.369 | 0.362 | 0.306 | 0.29 | 0.293 |
| NCI-H1437 | 0.3 | 0.307 | 0.351 | 0.329 | 0.34 | 0.663 | 0.648 | 0.479 | 0.531 | 0.393 | 0.831 | 0.859 | 0.787 | 0.824 | 0.778 | 0.451 | 0.394 | 0.407 | 0.381 | 0.384 |
| NCI-H2405 | – | 1.09 | 0.918 | 0.567 | 0.306 | 1.03 | 1.02 | 1.07 | 0.975 | 0.794 | 1.26 | 1.11 | 1.1 | 1.36 | 0.612 | 0.784 | 0.744 | 0.844 | 0.823 | 0.73 |
| NCI-H2023 | 0.226 | 0.262 | 0.211 | – | 0.245 | 1.18 | 1 | 1.06 | 0.855 | 0.371 | 0.92 | 0.809 | 0.867 | 0.925 | 0.261 | 0.479 | 0.431 | 0.409 | 0.321 | 0.2 |
| NCI-H838 | 0.259 | 0.244 | 0.24 | 0.205 | 0.181 | 1.24 | 0.971 | 0.807 | 0.778 | 0.643 | 1.22 | 0.993 | 1.04 | 0.998 | 0.958 | 0.317 | 0.283 | 0.301 | 0.249 | 0.237 |
| NCI-H661 | 0.938 | 0.964 | 0.943 | 0.811 | 0.639 | 0.859 | 0.64 | 0.874 | 0.567 | 0.795 | 0.596 | 0.431 | 0.505 | 0.511 | 0.449 | 0.361 | 0.345 | 0.331 | 0.35 | 0.359 |
| NCI-H1734 | 0.405 | 0.419 | 0.385 | 0.362 | 0.39 | 1.04 | 0.936 | 0.856 | 1.02 | 0.881 | 1.15 | 1.13 | 0.952 | 1.16 | 1.08 | 0.267 | 0.282 | 0.254 | 0.251 | 0.236 |
| NCI-H1650 | 0.443 | 0.394 | 0.399 | 0.349 | 0.355 | 0.192 | 0.217 | 0.201 | 0.195 | 0.182 | 0.958 | 0.759 | 0.838 | 0.842 | 0.331 | 0.392 | 0.433 | 0.399 | 0.359 | 0.294 |
| NCI-H596 | 0.528 | 0.534 | 0.504 | 0.509 | 0.41 | 1.1 | 0.99 | 1.2 | 0.907 | 1.1 | 1.18 | 1.15 | 1.04 | 1.09 | 0.985 | 1.02 | 0.809 | 0.971 | 1.06 | 0.715 |
| HCC-15 | 0.242 | 0.242 | 0.209 | 0.212 | 0.233 | 1.25 | 1.08 | 1.09 | 1.01 | 1 | 0.974 | 0.854 | 0.888 | 0.916 | 0.659 | 0.535 | 0.294 | 0.391 | 0.4 | 0.27 |
| HOP-62 | 0.286 | 0.344 | 0.252 | 0.298 | 0.288 | 0.803 | 0.974 | 1.01 | 0.726 | 0.704 | 1.25 | 0.85 | 1.06 | 1.12 | 0.511 | 0.428 | 0.433 | 0.356 | 0.382 | 0.375 |
| NCI-H3122 | 0.202 | 0.216 | 0.203 | 0.21 | 0.222 | 1.06 | 1.02 | 1.04 | 1.03 | 1.01 | 1.03 | 1.01 | 0.998 | 1.06 | 1.06 | 0.465 | 0.393 | 0.497 | 0.399 | 0.377 |
